Measured values: US20220213060A1, “Crystal Form of Quinazolinone Compound and Preparation Method Therefor” (Luoxin Healthcare Science and Technology Development …, priority 2019, published 2022)
Read-outs that look alike come from different tables or passages of the source.

Assays:
[1] = tested on: human ovarian cancer SKOV-3 (PIK3CA H1047R mutation); assay: In vivo pharmacodynamic study, SKOV-3 nude mouse subcutaneous xenograft tumor model; design: species or system BALB/c nude mice; details: for T/C % / TGI %: oral once a day for 28 days
Experimental: Human SKOV-3 ovarian cancer cells with PIK3CA H1047R mutation. This experiment evaluated the efficacy of the crystal form A of the represented by formula (I) in a human ovarian cancer xenograft tumor model.
Cell culture: Human ovarian cancer SKOV-3 cells were cultured in vitro in a single layer, the culture condition was RPMI-1640 medium with 10% fetal bovine serum, and the cells were incubated in 5% CO2 at 37° C. Digestion and passage treatment with trypsin-EDTA was carried out twice a week. When the cell saturation was 80%-90% and the number reached the requirement, the cells were collected, counted and inoculated.
Animals: BALB/c nude mice, female, 6-8 weeks old, weighing 18-20 g. A total of 67 animals were required, and provided by Beijing Vital River Biotechnology Co., Ltd.
Tumor inoculation: 0.2 mL (10×10^6 cells) of SKOV-3 cells (with matrigel in a volume ratio of 1:1) were subcutaneously inoculated on the right back of each mouse, group administration was started when the average tumor volume reached 150 mm^3-200 mm^3.
Tumor-bearing mice in each administration group had good tolerance to the tested compounds.

[2] = Sprague Dawley (SD) rat absorption test (pharmacokinetics); assay type: in vivo, SD rats; details: for C0 / Tmax / bioavailability / Tmax at 7 days / Vd / AUC(0-t) / clearance / half-life / Cmax / half-life at 7 days: Sprague-Dawley, rat, plasma; for AUC0-last / t1/2: listed as crystal form A of the compound represented by formula (I); for Vd: read-out: Vdss
Experimental: SD rats were given the crystal form A of the compound represented by formula (I) by single or multiple oral gavage and single intravenous injection respectively, with 6 rats in each group, half male and half female. According to the results of pharmacodynamic and toxicological experiments, the single oral gavage doses were 3, 10 and 30 mg/kg respectively; the multiple doses were 10 mg/kg, once a day for 7 consecutive days; the single intravenous dose was 1 mg/kg. According to the drug plasma concentration-time curve, the pharmacokinetic parameters were calculated. In this experiment, SD rats were provided by Beijing Vital River Experimental Animal Technology Co., Ltd., and were divided into 4 groups (3/sex/group) according to their similar weight. The vehicle for the intravenous group was 5% HP-betaCD/5% Solutol aqueous solution (pH=8); the vehicle for the oral group was 0.5% MC/0.2% Tw80 aqueous solution. Plasma samples were collected by jugular vein puncture in rats.

[3] = 10 mg/kg, listed as crystal form A of the compound represented by formula (I)
[4] = 20 mg/kg, listed as crystal form A of the compound represented by formula (I)
[5] = 40 mg/kg, listed as crystal form A of the compound represented by formula (I)
[6] = female SD rats, oral, 3 mg/kg, single
[7] = male SD rats, oral, 3 mg/kg, single
[8] = female SD rats, vein, 1 mg/kg, single
[9] = female, iv, 1 mg/kg, female SD rats, vein, single
[10] = female, po, 3 mg/kg, female SD rats, single
[11] = female, po, 10 mg/kg, female SD rats, oral, 10 mg/kg once a day, Day 7
[12] = female, po, 10 mg/kg, female SD rats, oral, 10 mg/kg, Day 1
[13] = female, po, 30 mg/kg, female SD rats, single
[14] = male SD rats, vein, 1 mg/kg, single
[15] = male, iv, 1 mg/kg, male SD rats, vein, single
[16] = male, po, 3 mg/kg, male SD rats, single
[17] = male, po, 10 mg/kg, male SD rats, oral, 10 mg/kg once a day, Day 7
[18] = male, po, 10 mg/kg, male SD rats, oral, 10 mg/kg, Day 1
[19] = male, po, 30 mg/kg, male SD rats, single

SMILES: CNC(=O)[C@H](C)Cn1cnc2ccc(-c3cnc(OC)c(NS(=O)(=O)c4ccc(F)cc4F)c3)cc2c1=O
- Anti-tumor effect (in words) ([1]; 10 mg/kg): a certain anti-tumor effect
- T/C % ([1]; 10 mg/kg): 69.17%
- TGI % ([1]; 10 mg/kg): 30.45%
- T/C % [1, 3]: 69.17%
- TGI % [1, 3]: 30.45%
- Anti-tumor effect (in words) ([1]; 20 mg/kg): a certain anti-tumor effect
- T/C % ([1]; 20 mg/kg): 60.61%
- TGI % ([1]; 20 mg/kg): 41.42%
- T/C % [1, 4]: 60.61%
- TGI % [1, 4]: 41.42%
- Anti-tumor effect (in words) ([1]; 40 mg/kg group): significant anti-tumor effects
- T/C % ([1]; 40 mg/kg): 37.79%
- TGI % ([1]; 40 mg/kg): 69.16%
- T/C % [1, 5]: 37.79%
- TGI % [1, 5]: 69.16%
- C0 ([2]; iv, female SD rats, vein, 1 mg/kg, single): 14.2 µM
- C0 ([2]; iv, male SD rats, vein, 1 mg/kg, single): 12.7 µM
- Tmax [2, 6]: 0.5 h
- bioavailability [2, 6]: 53.1%
- Tmax at 7 days ([2]; female SD rats, oral, 10 mg/kg once a day, Day 7): 0.5 h
- Tmax ([2]; female SD rats, oral, 10 mg/kg, Day 1): 0.667 ± 0.289 h
- Tmax ([2]; female SD rats, oral, 30 mg/kg, single): 0.5 h
- Tmax [2, 7]: 0.417 ± 0.144 h
- bioavailability [2, 7]: 34.7%
- Tmax at 7 days ([2]; male SD rats, oral, 10 mg/kg once a day, Day 7): 0.667 h
- Tmax ([2]; male SD rats, oral, 10 mg/kg, Day 1): 0.5 h
- Tmax ([2]; male SD rats, oral, 30 mg/kg, single): 0.667 ± 0.289 h
- AUC0-last [2, 8]: 17.4 µM·h
- t1/2 [2, 8]: 3.26 h
- Vd ([2]; female, iv, 1 mg/kg, female SD rats, vein, 1 mg/kg, single): 0.257 ± 0.0227 L/kg
- AUC(0-t) [2, 9]: 9.89 ± 1.41 µM·h
- clearance [2, 9]: 3.12 ± 0.431 mL/min/kg
- half-life [2, 9]: 1.63 ± 0.809 h
- AUC(0-t) [2, 10]: 27.7 ± 8.72 µM·h
- Cmax [2, 10]: 6.39 ± 1.71 µM
- half-life [2, 10]: 2.71 h
- AUC(0-t) [2, 11]: 86 ± 19.9 µM·h
- Cmax [2, 11]: 20.5 ± 4.6 µM
- half-life at 7 days [2, 11]: 3.74 h
- AUC(0-t) [2, 12]: 60.9 ± 10.9 µM·h
- Cmax [2, 12]: 12.1 ± 3.69 µM
- half-life [2, 12]: 2.92 h
- AUC(0-t) [2, 13]: 177 ± 48 µM·h
- Cmax [2, 13]: 39.1 µM
- half-life [2, 13]: 2.72 h
- AUC0-last [2, 14]: 9.89 µM·h
- t1/2 [2, 14]: 1.63 h
- Vd ([2]; male, iv, 1 mg/kg, male SD rats, vein, 1 mg/kg, single): 0.265 ± 0.05 L/kg
- AUC(0-t) [2, 15]: 17.4 ± 4.79 µM·h
- clearance [2, 15]: 1.79 ± 0.457 mL/min/kg
- half-life [2, 15]: 3.26 ± 1.13 h
- AUC(0-t) [2, 16]: 10.3 ± 4.6 µM·h
- Cmax [2, 16]: 4.77 ± 1.01 µM
- half-life [2, 16]: 2.26 h
- AUC(0-t) [2, 17]: 48.5 ± 4.64 µM·h
- Cmax [2, 17]: 13.9 ± 1.61 µM
- half-life at 7 days [2, 17]: 3.95 h
- AUC(0-t) [2, 18]: 23.7 ± 0.721 µM·h
- Cmax [2, 18]: 6.8 ± 0.583 µM
- half-life [2, 18]: 2.49 h
- AUC(0-t) [2, 19]: 45.3 ± 10.9 µM·h
- Cmax [2, 19]: 14.5 ± 4.73 µM
- half-life [2, 19]: 2.61 h
